The target in one experiment is T1, PDE4B1 (Homo sapiens, UniProt Q07343).
T1 construct: purchased BPS bioscience 60041
Put plainly: Inhibitory activity of PDE4 enzyme (hydrolysis of cAMP), PDE4B1. It is filed as biochemical. Conditions: cAMP 5 μM, 37° C., 15 min to 30 min, AMP by HPLC-MS. As for the experimental part:
(§1) (1) The inhibitory actions of compounds on activity of hydrolyzing cAMP with PDE4 enzyme were assayed by the inhibitory activity of PDE4 enzyme. The procedures are described as follows.
(§2) Humanized PDE4A1A, PDE4B1 and PDE4D2 were purchased from BPS bioscience (catalogue Nos.: 60040, 60041 and 60043, respectively). The enzyme reactions were carried out in 10 mM Tris-HCl (pH 7.4) and 1 mM MgCl2. The concentration of cAMP was 5 μM. The reaction was maintained at 37° C. for 15 min to 30 min so that the consumption of the substrate was controlled within 20%. The reaction was quenched with equal volume of acetonitrile. The production amount of the […] AMP was measured by HPLC-MS. The inhibitory activity of compounds on PDE4 enzyme was obtained by comparing the production amounts of the AMP in the experimental groups having the compounds with those of the control groups having no compounds.

For experiment [1], the system named is TNFα release by PBMCs stimulated by LPS. Put plainly: Inhibition of TNFα release by mononuclear cells (PBMCs) stimulated by LPS. It counts as cell-based. As to conditions: compound 1 hour before LPS, further 20 hours, TNFα in supernate by ELISA. The source says: 1. Effects of Mononuclear Cells (PBMCs) Stimulated by LPS on TNFα
The research in respect of cytokine TNFα release by PBMCs in the human peripheral blood after stimulated by lipopolysaccharide (LPS) can be carried out in vitro. The research method for inhibiting cytokine TNFα release by PBMCs upon stimulation by LPS with the pharmaceutical active ingredients in the present application is described as follows.
PBMCs are obtained from heparin treated blood of at least three volunteer donors. The heparin treated blood of at least three volunteer donors was subject to gradient separation of the known method to obtain PBMCs. The PBMCs were collected and washed with 1640 medium (10% fetal bovine serum, 2 mM L-glutamine, […] mercaptoethanol, 50 μg/ml streptomycin and 50 U/ml penicillin) three times. The PBMCs was added into a 24-well plate and prepared with a concentration of 1×10^6 cell/ml with 1640 medium. A compound to be tested was dissolved in dimethylsulfoxide and prepared as a solution of the compound to be tested with a required concentration. The solution was added into the cell cultures. After incubated in a CO2 incubator (5% CO2, 90% humidity) for 1 hour, LPS (Sigma) was added until […] (except for the control).
After the medium was further incubated for 20 hours, the content of TNFα in the supernate of the PBMCs medium was measured by the standard method with commercial ELISA kit (U. S Genzyme Co). The inhibition ratio of TNFα was calculated by the measured value of control well without treated by active ingredients and the measured value of the test well using the test compound. The concentration of generating 50% inhibition of the TNFα release (IC50 value) was calculated with nonlinear regression analysis. Each concentration was measured twice simultaneously and an average value was calculated.
In general terms: In an ELISA, binding on a coated surface is turned into a signal by an enzyme label.

The next experiment has as its target T2, PDE4D2 (Homo sapiens, UniProt Q08499).
T2 construct: purchased BPS bioscience 60043
Description: Inhibitory activity of PDE4 enzyme (hydrolysis of cAMP), PDE4D2. It counts as biochemical. As to conditions: cAMP 5 μM, 37° C., 15 min to 30 min, AMP by HPLC-MS. The procedure:
as §1, §2

For the next experiment, the target named is T3, PDE4A1A (Homo sapiens, UniProt P27815).
T3 construct: purchased BPS bioscience 60040
Description: Inhibitory activity of PDE4 enzyme (hydrolysis of cAMP), PDE4A1A. It is filed as biochemical. As to conditions: cAMP 5 μM, 37° C., 15 min to 30 min, AMP by HPLC-MS. As for the experimental part: as §1, §2

Another experiment has as its target T4, PDE2A (Homo sapiens, UniProt O00408).
T4 construct: purchased BPS bioscience 60020
Put plainly: Inhibitory activity of PDE2 (selectivity of PDE enzyme). It counts as biochemical. Conditions: cAMP 5 μM, 37° C., 30 min, AMP by HPLC-MS. The procedure:
(2) Inhibitory Activity of PDE2 (Selectivity of PDE Enzyme):
as §2, with “PDE2A was” for “PDE4A1A, PDE4B1 and PDE4D2 were”, “No.: 60020).” for “Nos.: 60040, 60041 and 60043, respectively).”, “reaction was” for “reactions were”, “μM,” for “μM.”, “for” for “for 15 min to”, “PDE2” for “PDE4 enzyme”

The IC50 is the concentration needed to halve the response being measured. The low end stands for greater potency in that assay, the high end for weaker potency in that assay.

T3 sequence (P27815 1-647 isoform P27815-4): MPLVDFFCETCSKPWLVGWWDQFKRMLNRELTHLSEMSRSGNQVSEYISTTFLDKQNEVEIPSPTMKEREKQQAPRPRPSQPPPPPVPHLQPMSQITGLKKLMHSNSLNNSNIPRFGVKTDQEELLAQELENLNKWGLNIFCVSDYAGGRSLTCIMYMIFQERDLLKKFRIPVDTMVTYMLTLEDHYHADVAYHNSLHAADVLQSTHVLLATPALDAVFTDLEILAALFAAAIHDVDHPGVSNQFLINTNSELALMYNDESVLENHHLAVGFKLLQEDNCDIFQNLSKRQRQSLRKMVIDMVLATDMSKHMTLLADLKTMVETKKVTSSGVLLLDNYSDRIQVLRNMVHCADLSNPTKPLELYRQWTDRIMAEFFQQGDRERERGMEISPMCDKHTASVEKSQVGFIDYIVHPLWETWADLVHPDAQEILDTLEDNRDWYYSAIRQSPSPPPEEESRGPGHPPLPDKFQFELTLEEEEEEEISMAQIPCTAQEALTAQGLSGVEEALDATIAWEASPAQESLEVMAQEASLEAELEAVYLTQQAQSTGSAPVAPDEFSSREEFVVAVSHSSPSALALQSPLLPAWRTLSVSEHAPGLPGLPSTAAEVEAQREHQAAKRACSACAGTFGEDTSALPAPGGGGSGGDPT
T1 sequence (Q07343 whole entry): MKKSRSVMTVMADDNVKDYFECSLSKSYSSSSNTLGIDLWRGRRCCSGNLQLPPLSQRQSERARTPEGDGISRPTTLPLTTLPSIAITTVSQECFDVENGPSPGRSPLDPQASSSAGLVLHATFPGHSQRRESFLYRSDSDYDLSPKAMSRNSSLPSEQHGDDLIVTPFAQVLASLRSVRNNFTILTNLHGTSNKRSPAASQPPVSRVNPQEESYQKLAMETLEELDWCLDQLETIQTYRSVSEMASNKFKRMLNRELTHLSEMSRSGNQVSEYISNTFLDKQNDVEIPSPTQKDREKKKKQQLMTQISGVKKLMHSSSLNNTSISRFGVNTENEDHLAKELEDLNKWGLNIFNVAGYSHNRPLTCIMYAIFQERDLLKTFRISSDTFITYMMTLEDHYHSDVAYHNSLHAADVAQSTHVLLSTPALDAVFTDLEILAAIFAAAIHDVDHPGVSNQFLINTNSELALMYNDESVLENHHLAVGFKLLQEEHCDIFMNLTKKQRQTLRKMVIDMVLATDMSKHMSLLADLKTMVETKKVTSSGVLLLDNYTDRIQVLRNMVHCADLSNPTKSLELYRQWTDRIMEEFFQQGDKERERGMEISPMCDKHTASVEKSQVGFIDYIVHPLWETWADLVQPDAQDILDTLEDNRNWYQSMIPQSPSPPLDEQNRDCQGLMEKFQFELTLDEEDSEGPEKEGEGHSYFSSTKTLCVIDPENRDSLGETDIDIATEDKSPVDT
T2 sequence (Q08499 303-809): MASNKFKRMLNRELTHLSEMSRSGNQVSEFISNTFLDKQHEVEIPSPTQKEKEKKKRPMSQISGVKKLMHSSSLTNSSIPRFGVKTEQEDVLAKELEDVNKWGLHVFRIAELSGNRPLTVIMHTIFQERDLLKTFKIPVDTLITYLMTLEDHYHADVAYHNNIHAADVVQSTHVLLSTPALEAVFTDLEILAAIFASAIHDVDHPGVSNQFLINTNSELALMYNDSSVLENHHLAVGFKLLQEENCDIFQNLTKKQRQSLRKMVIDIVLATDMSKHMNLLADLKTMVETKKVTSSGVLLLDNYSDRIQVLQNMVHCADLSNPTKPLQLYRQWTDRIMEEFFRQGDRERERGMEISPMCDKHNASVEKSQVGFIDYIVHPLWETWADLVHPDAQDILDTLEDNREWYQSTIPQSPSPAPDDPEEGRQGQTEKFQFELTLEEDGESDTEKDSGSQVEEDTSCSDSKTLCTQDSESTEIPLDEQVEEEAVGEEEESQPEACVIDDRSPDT
T4 sequence (O00408 whole entry): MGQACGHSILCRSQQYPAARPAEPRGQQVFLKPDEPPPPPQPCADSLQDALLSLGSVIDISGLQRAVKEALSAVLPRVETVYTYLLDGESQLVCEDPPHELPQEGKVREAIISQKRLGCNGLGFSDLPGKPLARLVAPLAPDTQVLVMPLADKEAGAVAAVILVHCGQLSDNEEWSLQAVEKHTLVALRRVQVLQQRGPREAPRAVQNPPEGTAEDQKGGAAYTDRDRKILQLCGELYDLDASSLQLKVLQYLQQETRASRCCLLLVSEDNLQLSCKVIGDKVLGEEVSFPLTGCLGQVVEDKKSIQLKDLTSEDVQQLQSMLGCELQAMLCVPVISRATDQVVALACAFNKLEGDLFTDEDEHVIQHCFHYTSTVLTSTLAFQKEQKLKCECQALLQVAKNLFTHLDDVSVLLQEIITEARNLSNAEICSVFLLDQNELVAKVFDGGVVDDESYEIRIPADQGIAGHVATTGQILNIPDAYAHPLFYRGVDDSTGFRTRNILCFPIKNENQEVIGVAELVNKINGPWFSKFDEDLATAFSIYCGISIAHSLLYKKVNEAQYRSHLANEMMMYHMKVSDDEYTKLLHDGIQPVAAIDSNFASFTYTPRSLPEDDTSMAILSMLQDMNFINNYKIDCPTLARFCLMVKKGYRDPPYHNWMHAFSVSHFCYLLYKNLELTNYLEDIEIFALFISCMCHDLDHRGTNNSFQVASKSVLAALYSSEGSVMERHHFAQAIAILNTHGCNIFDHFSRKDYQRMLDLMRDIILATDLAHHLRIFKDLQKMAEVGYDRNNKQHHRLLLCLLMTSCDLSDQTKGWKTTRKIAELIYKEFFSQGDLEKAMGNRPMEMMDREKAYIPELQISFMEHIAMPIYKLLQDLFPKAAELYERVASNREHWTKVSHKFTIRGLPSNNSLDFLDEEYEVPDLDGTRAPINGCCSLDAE

For the compound `COc1ccc(C(CS(C)(=O)=O)N2C(=O)c3csc(NC(C)=O)c3C2=O)cc1OCc1ccccc1` (stereo not shown) [Example 12, N-(5-(1-(3-phenylmethoxy-4-methoxyphenyl)-2-(methylsulfonyl)ethyl)-4,6-dioxo-5,6-dihydro-4H-thiophene[3,4-c]pyrrole-1-yl)acetamide], the IC50 on PDE4B1 is 1200 nM; in experiment [1] (Homo sapiens, PBMC), over 10000 nM.

Regarding `CCOc1cc(C(CS(C)(=O)=O)N2C(=O)c3csc(NS(C)(=O)=O)c3C2=O)ccc1OC` (stereo not shown) [Example 19, N-(5-(1-(3-ethoxy-4-methoxyphenyl)-2-(methylsulfonyl)ethyl)-4,6-diketone-5,6-dihydro-4H-thiophene[3,4-c]pyrrole-1-yl)methanesulfonamide], the 50% inhibitory concentration (IC50) amounted to 167 nM against PDE4B1 and 288 nM in experiment [1] (Homo sapiens, PBMC).

Consider `CCOc1cc(C(CS(C)(=O)=O)N2C(=O)c3cscc3C2=O)ccc1OC` (stereo not shown) [Example 4, 5-(1-(3-ethoxy-4-methoxyphenyl)-2-(methylsulfonyl)ethyl)-5H-thiophene[3,4-c]pyrrole-4,6-diketone], for which the IC50 is 329 nM against PDE4D2; 1200 nM against PDE4B1; 366 nM at PDE4A1A; 886 nM in experiment [1] (Homo sapiens, PBMC).

On to `CCOc1cc(C(CS(C)(=O)=O)N2C(=O)c3csc(NC(=O)CCl)c3C2=O)ccc1OC` (stereo not shown) [Example 18, 2-chloro-N-(5-(1-(3-ethoxy-4-methoxyphenyl)-2-(methylsulfonyl)ethyl)-4,6-diketone-5,6-dihydro-4H-thiophene[3,4-c]pyrrole-1-yl)acetamide], for which the concentration for half-maximal inhibition (IC50) against PDE4B1 worked out at 618 nM; in experiment [1] (Homo sapiens, PBMC), 216 nM.

Take `CCOc1cc([C@@H](CS(C)(=O)=O)N2C(=O)c3csc([N+](=O)[O-])c3C2=O)ccc1OC` [Example 20, (S)-1-nitro-5-(1-(3-ethoxy-4-methoxyphenyl)-2-(methylsulfonyl)ethyl)-5H-thiophene[3,4-c]pyrrole-4,6-diketone]: 26 nM corresponded to half-maximal inhibition on PDE4B1 (IC50). This lies in the double-digit nanomolar range.

On to `CCOc1cc(C(CS(C)(=O)=O)N2C(=O)c3csc(NC(C)=O)c3C2=O)ccc1OC` (stereo not shown) [Example 3, N-(5-(1-(3-ethoxy-4-methoxyphenyl)-2-(methylsulfonyl)ethyl)-4,6-dioxo-5,6-dihydro-4H-thiophene[3,4-c]pyrrole-1-yl)acetamide], for which the IC50 on PDE2A was determined as 36000 nM; against PDE4D2, 224 nM; on PDE4B1 it was 256 nM; on PDE4A1A, 208 nM; in experiment [1] (human PBMCs), 296 nM.

In turn, `CCOc1ccc(C(CS(C)(=O)=O)N2C(=O)c3csc(NC(C)=O)c3C2=O)cc1OC` (stereo not shown) [Example 26, N-(5-(1-(3-methoxy-4-ethoxyphenyl)-2-(methylsulfonyl)ethyl)-4,6-dioxo-5,6-dihydro-4H-thiophene[3,4-c]pyrrole-1-yl)acetamide] showed an IC50 in experiment [1] (human PBMCs) of over 10000 nM.

Turning to `CCOc1cc(C(CS(C)(=O)=O)N2C(=O)c3csc(N)c3C2=O)ccc1OC` (stereo not shown) [Example 2, 5-(1-(3-ethoxy-4-methoxyphenyl)-2-(methylsulfonyl)ethyl)-1-amino-5H-thiophene[3,4-c]pyrrole-4,6-diketone], the concentration for half-maximal inhibition (IC50) was found to be 1900 nM against PDE4D2; 212 nM against PDE4B1; 524 nM in experiment [1] (Homo sapiens, PBMC).

For the compound `CCOc1cc([C@@H](CS(C)(=O)=O)N2C(=O)c3cscc3C2=O)ccc1OC` [Example 5, (S)-5-(1-(3-ethoxy-4-methoxyphenyl)-2-(methylsulfonyl)ethyl)-5H-thiophene[3,4-c]pyrrole-4,6-diketone], the IC50 against PDE4B1 turned out to be 368 nM; in experiment [1] (Homo sapiens, PBMC), 376 nM.

In the case of `COc1ccc(C(CS(C)(=O)=O)N2C(=O)c3csc(N)c3C2=O)cc1OCc1ccccc1` (stereo not shown) [Example 11, 5-(1-(3-phenylmethoxy-4-methoxyphenyl)-2-(methylsulfonyl)ethyl)-1-amino-5H-thiophene[3,4-c]pyrrole-4,6-diketone], the IC50 against PDE4B1 is 1000 nM; in experiment [1] (Homo sapiens, PBMC), over 10000 nM.

For `COc1ccc(C(CS(C)(=O)=O)N2C(=O)c3cscc3C2=O)cc1OCc1ccccc1` (stereo not shown) [Example 9, 5-(1-(3-phenylmethoxy-4-methoxyphenyl)-2-(methylsulfonyl)ethyl)-5H-thiophene[3,4-c]pyrrole-4,6-diketone], the 50% inhibitory concentration (IC50) at PDE4D2 worked out at 831 nM; against PDE4B1, 5300 nM; in experiment [1] (Homo sapiens, PBMC) it was 7500 nM.

In the case of `CCOc1cc([C@@H](CS(C)(=O)=O)N2C(=O)c3csc(N)c3C2=O)ccc1OC` [Example 21, (S)-1-amino-5-(1-(3-ethoxy-4-methoxyphenyl)-2-(methylsulfonyl)ethyl)-5H-thiophene[3,4-c]pyrrole-4,6-diketone], in experiment [1] (human PBMCs), the half-maximal inhibitory concentration (IC50) was 142 nM.

Take `CCOc1cc([C@H](CS(C)(=O)=O)N2C(=O)c3csc(NC(C)=O)c3C2=O)ccc1OC` [Example 25, (R)—N-(5-(1-(3-ethoxy-4-methoxyphenyl)-2-(methylsulfonyl)ethyl)-4,6-dioxo-5,6-dihydro-4H-thiophene[3,4-c]pyrrole-1-yl)acetamide]: half-maximal inhibition in experiment [1] (human PBMCs) (IC50) required 1190 nM. This IC50 lies about 8.4-fold higher than the previous one.

For `CCOc1cc([C@@H](CS(C)(=O)=O)N2C(=O)c3csc(NC(C)=O)c3C2=O)ccc1OC` [Example 24, (S)—N-(5-(1-(3-ethoxy-4-methoxyphenyl)-2-(methylsulfonyl)ethyl)-4,6-dioxo-5,6-dihydro-4H-thiophene[3,4-c]pyrrole-1-yl)acetamide], the IC50 against PDE2A was over 50000 nM; on PDE4D2 it was 114 nM; against PDE4B1 it was 178 nM; at PDE4A1A, 104 nM; in experiment [1] (human PBMCs), 65 nM.

On to `CCOc1cc([C@H](CS(C)(=O)=O)N2C(=O)c3csc(N)c3C2=O)ccc1OC` [Example 23, (R)-1-amino-5-(1-(3-ethoxy-4-methoxyphenyl)-2-(methylsulfonyl)ethyl)-5H-thiophene[3,4-c]pyrrole-4,6-diketone], for which the half-inhibitory concentration (IC50) on PDE4D2 was 55 nM; against PDE4B1, 718 nM; in experiment [1] (Homo sapiens, PBMC) it was 1900 nM.

For `CCOc1cc([C@H](CS(C)(=O)=O)N2C(=O)c3cscc3C2=O)ccc1OC` [Example 6, (R)-5-(1-(3-ethoxy-4-methoxyphenyl)-2-(methylsulfonyl)ethyl)-5H-thiophene[3,4-c]pyrrole-4,6-diketone], the IC50 was found to be 315 nM against PDE4D2; 2300 nM against PDE4B1; 2500 nM in experiment [1] (Homo sapiens, PBMC).

For the origin of these results see patent publication US10611775B2, “Thiophene derivatives” (TIANJIN HEMAY PHARMACEUTICAL CO., LTD., priority 2009, dated 2020).
